The values that follow come from ChEMBL document CHEMBL5696442, “Discovery of type II inhibitors of TGFβ-activated kinase 1 (TAK1) and mitogen-activated protein kinase kinase kinase kinase 2 (MAP4K2)” (J Med Chem, 2015).

Calls of active or inactive are those of the source. No cut-off for these calls is given here.

The target of assay [1] is Serine/threonine-protein kinase 25 (Homo sapiens) (UniProt O00506). Kind of assay: Inhibition of YSK1 Lys2 labeling site in human Huh-7 cell lysate at 1 uM by KiNativ Profiling analysis relative to control. In kind it is subcellular.
The target in assay [2] is Serine/threonine-protein kinase 38 (Homo sapiens) (UniProt Q15208). The assay can be described thus: Inhibition of NDR1 Lys1 labeling site in human Huh-7 cells at 1 uM by KiNativ Profiling analysis relative to control. The format is cell-based.
Assay [3] deals with T1, Dual specificity mitogen-activated protein kinase kinase 6 (Homo sapiens) (UniProt P52564).
T1 sequence (whole entry): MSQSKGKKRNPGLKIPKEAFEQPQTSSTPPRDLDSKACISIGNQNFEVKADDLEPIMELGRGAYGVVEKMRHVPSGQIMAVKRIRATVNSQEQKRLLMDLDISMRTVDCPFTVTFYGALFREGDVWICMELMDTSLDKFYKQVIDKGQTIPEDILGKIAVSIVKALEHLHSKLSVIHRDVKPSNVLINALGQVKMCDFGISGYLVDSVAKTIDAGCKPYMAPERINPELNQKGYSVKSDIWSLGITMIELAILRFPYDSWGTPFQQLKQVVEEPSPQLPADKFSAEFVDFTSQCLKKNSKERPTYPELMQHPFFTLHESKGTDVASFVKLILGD
The assay can be described thus: Inhibition of MAP2K6 Lys2 labeling site in human Huh-7 cell lysate at 1 uM by KiNativ Profiling analysis relative to control. In kind it is subcellular.

The target of assay [4] is T2, Serine/threonine-protein kinase NLK (Homo sapiens) (UniProt Q9UBE8).
T2 sequence (whole entry): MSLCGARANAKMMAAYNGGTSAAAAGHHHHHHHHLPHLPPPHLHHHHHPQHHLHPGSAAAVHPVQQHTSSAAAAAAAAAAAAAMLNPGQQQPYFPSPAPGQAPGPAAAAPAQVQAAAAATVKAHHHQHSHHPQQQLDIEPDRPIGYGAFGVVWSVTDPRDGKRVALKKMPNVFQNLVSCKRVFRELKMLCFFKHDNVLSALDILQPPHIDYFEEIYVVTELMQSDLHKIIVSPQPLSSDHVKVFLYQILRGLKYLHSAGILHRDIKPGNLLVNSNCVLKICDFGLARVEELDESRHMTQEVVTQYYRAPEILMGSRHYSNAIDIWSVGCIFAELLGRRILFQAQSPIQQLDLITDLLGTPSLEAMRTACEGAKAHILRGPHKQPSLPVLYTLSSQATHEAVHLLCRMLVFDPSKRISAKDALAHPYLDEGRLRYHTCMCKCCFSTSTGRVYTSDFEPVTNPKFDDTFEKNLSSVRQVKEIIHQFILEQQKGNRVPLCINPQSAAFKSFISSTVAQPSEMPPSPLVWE
Kind of assay: Inhibition of NLK (unknown origin) at 1 uM by Ambit Kinomescan binding assay relative to control; values are per cent of control.

For assay [5], the target named is Serine/threonine-protein kinase MARK2 (Homo sapiens) (UniProt Q7KZI7). Kind of assay: Inhibition of MARK2 Lys2 labeling site harbouring DLKAENLLLDADMNIK in human A-375 cells at 0.5 uM by KiNativ Profiling analysis relative to control. In kind it is cell-based.
In assay [6] the target is Cyclin-dependent kinase 6 (Homo sapiens) (UniProt Q00534). Kind of assay: Inhibition of CDK6 Lys2 labeling site in human A-375 cells at 0.05 uM by KiNativ Profiling analysis relative to control. The format is cell-based.
The test system of assay [7] is Serine/threonine-protein kinase B-raf (Homo sapiens), P15056 [V600E]. The assay can be described thus: Inhibition of BRAF V600E mutant (unknown origin) at 10 uM by Ambit Kinomescan binding assay relative to control.
Assay [8] concerns the target T3, Phosphorylase b kinase gamma catalytic chain, liver/testis isoform (Homo sapiens) (UniProt P15735).
T3 sequence (whole entry): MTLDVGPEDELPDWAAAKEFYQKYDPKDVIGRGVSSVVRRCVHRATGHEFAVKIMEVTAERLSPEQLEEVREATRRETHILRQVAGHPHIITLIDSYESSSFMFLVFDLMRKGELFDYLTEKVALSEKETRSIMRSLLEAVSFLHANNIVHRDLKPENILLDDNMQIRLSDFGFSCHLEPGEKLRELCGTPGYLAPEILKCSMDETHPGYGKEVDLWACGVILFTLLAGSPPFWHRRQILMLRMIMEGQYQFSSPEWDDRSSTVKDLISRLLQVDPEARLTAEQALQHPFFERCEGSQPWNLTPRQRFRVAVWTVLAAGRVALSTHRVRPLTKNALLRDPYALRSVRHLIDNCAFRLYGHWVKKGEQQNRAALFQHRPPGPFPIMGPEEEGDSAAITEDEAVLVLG
The assay can be described thus: Inhibition of PHKG2 (unknown origin) at 10 uM by Ambit Kinomescan binding assay.

The target in assay [9] is Tyrosine-protein kinase CSK (Homo sapiens, UniProt P41240). The assay can be described thus: Inhibition of CSK ACT labeling site harbouring VSDFGLTKEASSTQDTGKLPVK in human A-375 cells at 5 uM by KiNativ Profiling analysis relative to control. The format is cell-based.
Assay [10] addresses Serine/threonine-protein kinase PAK 1 (Homo sapiens) (UniProt Q13153). The assay can be described thus: Inhibition of PAK1 (unknown origin) at 10 uM by Ambit Kinomescan binding assay.
Assay [11] addresses Non-receptor tyrosine-protein kinase TYK2 (Homo sapiens) (UniProt P29597). The assay can be described thus: Inhibition of TYK2 JH2 pseudokinase domain (unknown origin) at 10 uM by Ambit Kinomescan binding assay.
Assay [12] concerns the target T4, EKC/KEOPS complex subunit TP53RK (Homo sapiens) (UniProt Q96S44).
T4 sequence (whole entry): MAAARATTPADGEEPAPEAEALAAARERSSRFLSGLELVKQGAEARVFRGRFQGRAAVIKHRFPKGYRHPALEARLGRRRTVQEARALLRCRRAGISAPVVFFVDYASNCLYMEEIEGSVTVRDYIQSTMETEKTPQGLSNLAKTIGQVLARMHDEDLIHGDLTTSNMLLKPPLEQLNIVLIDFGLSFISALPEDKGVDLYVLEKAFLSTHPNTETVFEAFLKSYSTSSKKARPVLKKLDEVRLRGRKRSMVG
The assay can be described thus: Inhibition of PRPK ATP Loop labeling site in human A-375 cells at 5 uM by KiNativ Profiling analysis relative to control. The format is cell-based.

Assay [13] addresses Tyrosine-protein kinase ABL1 (Homo sapiens, UniProt P00519). The assay can be described thus: Inhibition of ABL ACT labeling site in human A-375 cells at 0.05 uM by KiNativ Profiling analysis relative to control. In kind it is cell-based.
The subject of assay [14] is Tyrosine-protein kinase ABL1 (Homo sapiens), P00519 [F317I]. The assay can be described thus: Inhibition of ABL1 F317I mutant (unknown origin) at 10 uM by Ambit Kinomescan binding assay relative to control.
Assay [15] has as its target Casein kinase I isoform delta (Homo sapiens) (UniProt P48730). Kind of assay: Inhibition of CSNK1D (unknown origin) at 10 uM by Ambit Kinomescan binding assay.
Assay [16] has as its target Serine/threonine-protein kinase PLK3 (Homo sapiens) (UniProt Q9H4B4). Kind of assay: Inhibition of PLK3 (unknown origin) at 10 uM by Ambit Kinomescan binding assay.

Chain of Serine/threonine-protein kinase MARK2 (Homo sapiens) (Q7KZI7 whole entry): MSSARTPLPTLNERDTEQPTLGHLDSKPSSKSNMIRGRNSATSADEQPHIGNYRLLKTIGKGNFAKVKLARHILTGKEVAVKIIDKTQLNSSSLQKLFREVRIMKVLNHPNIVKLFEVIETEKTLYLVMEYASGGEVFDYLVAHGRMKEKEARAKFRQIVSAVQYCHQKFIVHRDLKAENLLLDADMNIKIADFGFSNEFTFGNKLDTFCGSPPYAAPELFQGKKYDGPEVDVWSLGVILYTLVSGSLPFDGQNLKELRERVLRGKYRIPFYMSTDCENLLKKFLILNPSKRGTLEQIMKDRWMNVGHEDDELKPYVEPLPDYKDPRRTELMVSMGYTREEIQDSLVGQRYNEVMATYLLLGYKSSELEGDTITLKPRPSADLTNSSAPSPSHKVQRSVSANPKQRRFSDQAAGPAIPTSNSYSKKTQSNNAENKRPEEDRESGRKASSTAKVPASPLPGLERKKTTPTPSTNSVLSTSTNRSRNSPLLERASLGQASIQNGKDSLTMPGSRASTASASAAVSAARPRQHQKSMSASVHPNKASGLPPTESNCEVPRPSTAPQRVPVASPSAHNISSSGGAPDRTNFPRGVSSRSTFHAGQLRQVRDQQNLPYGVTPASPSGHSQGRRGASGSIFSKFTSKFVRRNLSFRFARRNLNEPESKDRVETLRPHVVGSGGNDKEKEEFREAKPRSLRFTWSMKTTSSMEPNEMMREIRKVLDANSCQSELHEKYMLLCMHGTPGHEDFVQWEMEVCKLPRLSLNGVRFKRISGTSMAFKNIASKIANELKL
Chain of Serine/threonine-protein kinase 25 (Homo sapiens) (O00506 whole entry, looked up): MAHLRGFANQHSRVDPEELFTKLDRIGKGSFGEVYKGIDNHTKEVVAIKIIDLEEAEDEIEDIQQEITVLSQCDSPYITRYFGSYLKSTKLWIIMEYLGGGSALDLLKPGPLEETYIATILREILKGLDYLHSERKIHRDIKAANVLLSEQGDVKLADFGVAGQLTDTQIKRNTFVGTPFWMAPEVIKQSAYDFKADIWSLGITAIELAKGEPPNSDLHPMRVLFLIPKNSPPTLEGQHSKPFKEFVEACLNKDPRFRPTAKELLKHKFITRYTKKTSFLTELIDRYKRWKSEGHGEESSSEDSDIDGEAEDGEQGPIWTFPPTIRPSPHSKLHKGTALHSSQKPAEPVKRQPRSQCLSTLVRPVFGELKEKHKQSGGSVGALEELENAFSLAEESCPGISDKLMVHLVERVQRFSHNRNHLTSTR
Chain of Serine/threonine-protein kinase B-raf (Homo sapiens), P15056 [V600E] (P15056 whole entry V600E, canonical isoform): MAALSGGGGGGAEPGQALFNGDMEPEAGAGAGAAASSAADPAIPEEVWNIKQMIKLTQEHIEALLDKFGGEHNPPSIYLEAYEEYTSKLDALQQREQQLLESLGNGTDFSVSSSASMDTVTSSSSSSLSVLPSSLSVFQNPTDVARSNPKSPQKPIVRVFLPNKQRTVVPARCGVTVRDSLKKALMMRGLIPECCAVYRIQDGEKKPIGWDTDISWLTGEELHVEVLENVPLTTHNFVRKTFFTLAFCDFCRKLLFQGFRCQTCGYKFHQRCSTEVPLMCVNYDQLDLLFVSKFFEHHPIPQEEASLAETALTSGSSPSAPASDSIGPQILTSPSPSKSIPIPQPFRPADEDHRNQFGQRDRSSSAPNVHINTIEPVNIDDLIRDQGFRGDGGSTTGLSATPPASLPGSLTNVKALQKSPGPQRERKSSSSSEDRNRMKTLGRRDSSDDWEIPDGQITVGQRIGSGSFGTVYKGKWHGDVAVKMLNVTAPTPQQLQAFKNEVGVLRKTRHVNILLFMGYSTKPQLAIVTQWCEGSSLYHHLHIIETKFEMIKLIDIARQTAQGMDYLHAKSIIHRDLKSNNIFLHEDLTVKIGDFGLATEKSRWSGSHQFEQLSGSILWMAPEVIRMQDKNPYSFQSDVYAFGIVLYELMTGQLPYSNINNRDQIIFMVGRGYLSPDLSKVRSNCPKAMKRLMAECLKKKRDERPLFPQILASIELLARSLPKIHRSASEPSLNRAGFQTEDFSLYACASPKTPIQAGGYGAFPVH
Chain of Cyclin-dependent kinase 6 (Homo sapiens) (Q00534 whole entry): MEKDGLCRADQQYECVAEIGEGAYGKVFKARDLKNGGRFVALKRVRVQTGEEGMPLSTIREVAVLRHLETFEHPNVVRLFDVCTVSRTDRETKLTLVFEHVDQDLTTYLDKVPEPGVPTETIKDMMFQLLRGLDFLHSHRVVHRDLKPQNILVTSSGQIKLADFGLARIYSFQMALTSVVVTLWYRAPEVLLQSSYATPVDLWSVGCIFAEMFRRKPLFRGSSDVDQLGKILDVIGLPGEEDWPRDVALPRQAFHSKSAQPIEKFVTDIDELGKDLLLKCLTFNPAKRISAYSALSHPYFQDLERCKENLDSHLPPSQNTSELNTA
Chain of Serine/threonine-protein kinase PLK3 (Homo sapiens) (Q9H4B4 whole entry, looked up): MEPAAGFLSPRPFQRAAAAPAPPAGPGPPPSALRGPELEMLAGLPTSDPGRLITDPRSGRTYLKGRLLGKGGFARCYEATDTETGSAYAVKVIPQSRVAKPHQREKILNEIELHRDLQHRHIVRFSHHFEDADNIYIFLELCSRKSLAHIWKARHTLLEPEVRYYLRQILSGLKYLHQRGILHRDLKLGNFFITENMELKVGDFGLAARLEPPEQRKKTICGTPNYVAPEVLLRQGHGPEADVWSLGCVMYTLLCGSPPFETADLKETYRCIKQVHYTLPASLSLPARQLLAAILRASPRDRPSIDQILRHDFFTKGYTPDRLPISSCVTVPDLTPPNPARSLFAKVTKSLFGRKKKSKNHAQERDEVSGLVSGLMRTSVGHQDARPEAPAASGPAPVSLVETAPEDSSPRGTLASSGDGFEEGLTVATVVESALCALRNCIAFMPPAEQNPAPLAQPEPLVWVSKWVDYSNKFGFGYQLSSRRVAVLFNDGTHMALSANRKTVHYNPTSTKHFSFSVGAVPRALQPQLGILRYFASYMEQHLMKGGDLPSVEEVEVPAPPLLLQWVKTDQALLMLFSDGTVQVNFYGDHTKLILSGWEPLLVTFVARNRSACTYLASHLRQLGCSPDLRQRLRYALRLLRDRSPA
Chain of Serine/threonine-protein kinase PAK 1 (Homo sapiens) (Q13153 whole entry, looked up, the tested form may be a part): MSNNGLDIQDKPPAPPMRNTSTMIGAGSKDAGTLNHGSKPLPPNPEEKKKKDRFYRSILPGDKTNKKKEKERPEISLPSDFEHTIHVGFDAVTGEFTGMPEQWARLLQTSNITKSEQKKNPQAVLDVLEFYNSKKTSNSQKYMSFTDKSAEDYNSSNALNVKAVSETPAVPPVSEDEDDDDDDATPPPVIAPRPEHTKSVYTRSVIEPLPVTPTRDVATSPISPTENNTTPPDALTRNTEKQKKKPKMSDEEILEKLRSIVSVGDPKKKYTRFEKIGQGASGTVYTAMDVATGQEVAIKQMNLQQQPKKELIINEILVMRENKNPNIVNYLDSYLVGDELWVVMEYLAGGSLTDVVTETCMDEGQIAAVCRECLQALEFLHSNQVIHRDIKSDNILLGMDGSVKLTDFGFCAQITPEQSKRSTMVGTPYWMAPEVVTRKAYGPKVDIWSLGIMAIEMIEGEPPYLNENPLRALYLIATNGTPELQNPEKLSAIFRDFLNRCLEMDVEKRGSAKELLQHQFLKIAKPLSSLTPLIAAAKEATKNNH
Chain of Casein kinase I isoform delta (Homo sapiens) (P48730 whole entry, looked up, canonical isoform): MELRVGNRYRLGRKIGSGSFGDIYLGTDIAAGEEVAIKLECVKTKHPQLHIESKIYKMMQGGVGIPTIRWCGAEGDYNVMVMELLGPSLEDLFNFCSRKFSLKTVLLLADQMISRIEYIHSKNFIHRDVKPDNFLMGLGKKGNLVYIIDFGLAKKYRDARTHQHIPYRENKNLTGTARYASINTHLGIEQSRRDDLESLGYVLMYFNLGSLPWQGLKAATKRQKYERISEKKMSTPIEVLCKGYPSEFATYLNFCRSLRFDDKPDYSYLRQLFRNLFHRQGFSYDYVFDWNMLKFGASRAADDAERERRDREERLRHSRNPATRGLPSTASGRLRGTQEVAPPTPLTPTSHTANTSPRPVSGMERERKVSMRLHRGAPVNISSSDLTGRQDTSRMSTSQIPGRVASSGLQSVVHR
Chain of Tyrosine-protein kinase ABL1 (P00519 whole entry): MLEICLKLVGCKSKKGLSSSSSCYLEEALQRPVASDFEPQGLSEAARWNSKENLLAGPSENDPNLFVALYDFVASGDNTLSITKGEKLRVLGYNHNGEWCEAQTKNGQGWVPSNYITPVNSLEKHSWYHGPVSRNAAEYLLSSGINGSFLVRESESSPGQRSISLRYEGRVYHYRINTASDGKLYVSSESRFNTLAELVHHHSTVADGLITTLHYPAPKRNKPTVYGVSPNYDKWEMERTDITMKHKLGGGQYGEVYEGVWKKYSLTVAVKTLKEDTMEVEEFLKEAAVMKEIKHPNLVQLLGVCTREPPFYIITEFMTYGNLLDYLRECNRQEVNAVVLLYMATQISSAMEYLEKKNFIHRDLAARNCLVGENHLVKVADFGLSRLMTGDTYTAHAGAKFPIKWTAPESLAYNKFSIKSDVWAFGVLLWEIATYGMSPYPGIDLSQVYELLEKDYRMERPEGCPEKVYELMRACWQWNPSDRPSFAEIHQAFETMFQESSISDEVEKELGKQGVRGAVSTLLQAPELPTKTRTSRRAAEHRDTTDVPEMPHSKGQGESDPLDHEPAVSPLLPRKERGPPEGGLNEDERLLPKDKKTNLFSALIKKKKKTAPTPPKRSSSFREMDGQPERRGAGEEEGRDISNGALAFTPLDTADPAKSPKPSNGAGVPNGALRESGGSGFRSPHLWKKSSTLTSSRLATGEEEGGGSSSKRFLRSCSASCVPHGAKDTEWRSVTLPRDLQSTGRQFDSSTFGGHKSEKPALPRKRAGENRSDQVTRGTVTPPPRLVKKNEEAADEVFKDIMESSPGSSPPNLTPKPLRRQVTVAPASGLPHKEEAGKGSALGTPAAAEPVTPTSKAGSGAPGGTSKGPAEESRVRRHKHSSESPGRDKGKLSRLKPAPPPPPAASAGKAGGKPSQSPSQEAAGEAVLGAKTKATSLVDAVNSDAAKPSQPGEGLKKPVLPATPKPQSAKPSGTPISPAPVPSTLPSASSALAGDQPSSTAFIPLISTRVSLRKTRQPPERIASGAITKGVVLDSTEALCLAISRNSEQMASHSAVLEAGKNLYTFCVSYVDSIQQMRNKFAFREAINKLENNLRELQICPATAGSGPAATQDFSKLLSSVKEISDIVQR

By inhibition is commonly meant the change of the read-out against control, counted positive when it falls. For `CNc1cc(Oc2cc(C(=O)Nc3cc(N4CCN(C)CC4)cc(C(F)(F)F)c3)ccc2C)ncn1`, the values for the inhibition in assay [1], in assay [2] and in assay [3] were -0.3%, 16.4% and -4%, respectively.
Broadly, the residual activity is the signal under treatment as a percentage of the control signal. Higher therefore signals a small loss of activity. On to `CCN1CCN(Cc2ccc(NC(=O)c3ccc(C)c(/C=C/c4cnc5[nH]ccc5c4OC)c3)cc2C(F)(F)F)CC1`, for which the residual activity in assay [4] is 18%. Besides, the values for the inhibition in assay [5] and in assay [6] were 9.1% and 5.5%, respectively.
Take `CCN1CCN(Cc2ccc(NC(=O)c3ccc(C)c(Oc4ccnc5[nH]ccc45)c3)cc2C(F)(F)F)CC1`: the inhibition was 4% in assay [7]; 78.2% in [9]; 8% in assay [12]; 88.5% in assay [13]; 0.05% in [14]. In addition, the inhibition result in assay [8], in assay [10], in assay [11], in [15] and in assay [16] was “inactive” in each case.
